Measurements from patent US6603044B1, “Phthalamide derivatives, or salt thereof agrohorticultural insecticide, and method for using the same” (Nihon Nohyaku Co., Ltd., priority 1998, dated 2003).

System: Diamond Back Moth (Plutella xylostella)
Assay: Insecticidal effect on diamond back moth (Test Example 1)
Type: in vivo
Settings: 50 ppm; Chinese cabbage seedling with deposited eggs immersed about 30 seconds; 25° C.; six days after the immersion
Excerpt: Insecticidal Effect on Diamond Back Moth (Plutella xylostella)
Adult diamondback moths were released and allowed to oviposit on a Chinese cabbage seedling. Two days after the release, the seedling having the eggs deposited thereon was immersed for about 30 seconds in a liquid chemical prepared by diluting a preparation containing each compound listed in Table 1, 2 or 3 as an active ingredient to adjust the concentration to 50 ppm. After air-dryness, it was allowed to stand in a room thermostatted at 25° C. Six days after the immersion, the hatched insects were counted. The mortality was calculated according to the following equation and the insecticidal effect was judged according to the criterion shown below. The test was carried out with triplicate groups of 10 insects.

| Structure (SMILES) | Test Example 1 insecticidal effect (mortality) |
| --- | --- |
| CSCCN(C)C(=O)c1c(F)cccc1C(=O)Nc1ccc(C(F)(C(F)(F)F)C(F)(F)F)cc1C [2-7] | A (100) |
| Cc1cc(C(F)(C(F)(F)F)C(F)(F)F)ccc1NC(=O)c1cccc(F)c1C(=O)N(C)CC[S+](C)[O-] (stereo not shown) [2-9] | A (100) |
| CCN(CC[S+](C)[O-])C(=O)c1c(F)cccc1C(=O)Nc1ccc(C(F)(C(F)(F)F)C(F)(F)F)cc1C (stereo not shown) [2-11] | A (100) |
| CCN(CSC)C(=O)c1c(Cl)cccc1C(=O)Nc1ccc(OC(F)(F)F)cc1C [2-16] | A (100) |
| Cc1cc(C(F)(C(F)(F)F)C(F)(F)F)ccc1NC(=O)c1cccc(I)c1C(=O)N1CCSC1 [3-2] | A (100) |
| CSCC(C)NC(=O)c1cccc(S(C)(=O)=O)c1C(=O)Nc1ccc(C(F)(C(F)(F)F)C(F)(F)F)cc1C (stereo not shown) [Compound No. 192, N^1-(4-Heptafluoroisopropyl-2-methylphenyl)-N^2-(1-methyl-2-methylthioethyl)-6-methylsulfonylphthalamide] | A (100) |
| CSCC(C)NC(=O)c1c(I)cccc1C(=O)Nc1ccc(OC(F)F)cc1C (stereo not shown) [compound 4] | A (100) |
| CSCC(C)NC(=O)c1c(I)cccc1C(=O)Nc1ccc(Cl)cc1C (stereo not shown) [compound 9] | A (100) |
| CSCC(C)NC(=O)c1c(F)cccc1C(=O)Nc1ccc(OC(F)(F)F)cc1C (stereo not shown) [compound 12] | A (100) |
| CSCC(C)NC(=O)c1c(F)cccc1C(=O)Nc1ccc(OC(F)F)cc1C (stereo not shown) [compound 13] | A (100) |
| CSCC(C)NC(=O)c1ccccc1C(=O)Nc1ccc(C(F)(F)C(F)(F)F)cc1C (stereo not shown) [compound 14] | A (100) |
| CSCC(C)NC(=O)c1ccccc1C(=O)Nc1ccc(OC(F)(F)F)cc1C (stereo not shown) [compound 15] | A (100) |
| CCSCC(C)NC(=O)c1c(F)cccc1C(=O)Nc1ccc(OC(F)(F)F)cc1C (stereo not shown) [compound 27] | A (100) |
| CSCC(CSC)NC(=O)c1c(I)cccc1C(=O)Nc1ccc(C(F)(F)C(F)(F)F)cc1C [compound 36] | A (100) |
| CSCC(C)NC(=O)c1ccc(Cl)c(Cl)c1C(=O)Nc1ccc(C(F)(C(F)(F)F)C(F)(F)F)cc1C (stereo not shown) [compound 42] | A (100) |
| CSCC(C)NC(=O)c1c(I)cccc1C(=O)Nc1cc2c(cc1Cl)OC(F)(F)C(F)O2 (stereo not shown) [compound 47] | A (100) |
| CSCCNC(=O)c1cccc(I)c1C(=O)Nc1ccc(OC(F)(F)F)cc1C [compound 51] | A (100) |
| CSCCNC(=O)c1c(I)cccc1C(=O)Nc1ccc(OC(F)(F)F)cc1C [compound 52] | A (100) |
| CSCCCNC(=O)c1c(I)cccc1C(=O)Nc1ccc(OC(F)(F)F)cc1C [compound 55] | A (100) |
| Cc1cc(OC(F)(F)F)ccc1NC(=O)c1cccc(I)c1C(=O)NCCSC(C)C [compound 58] | A (100) |
| CCSCCNC(=O)c1c(I)cccc1C(=O)Nc1ccc(OC(F)(F)F)cc1C [compound 71] | A (100) |
| CCCCCCSCC(C)NC(=O)c1c(I)cccc1C(=O)Nc1ccc(OC(F)(F)F)cc1C (stereo not shown) [compound 77] | A (100) |
| CCCCCCSCC(C)NC(=O)c1c(I)cccc1C(=O)Nc1ccc(C(F)(C(F)(F)F)C(F)(F)F)cc1C (stereo not shown) [compound 78] | A (100) |
| CC(CS(C)(=O)=O)NC(=O)c1c(I)cccc1C(=O)Nc1cc2c(cc1Cl)OC(F)(F)C(F)O2 (stereo not shown) [compound 103] | A (100) |
| CSCC(C)NC(=O)c1c(C(=O)Nc2ccc(OC(F)(F)F)cc2C)cccc1[N+](=O)[O-] (stereo not shown) [compound 104] | A (100) |
| CSCC(C)NC(=O)c1cc(I)ccc1C(=O)Nc1ccc(OC(F)(F)F)cc1C (stereo not shown) [compound 107] | A (100) |
| CSCC(C)NC(=O)c1ccc(I)cc1C(=O)Nc1ccc(OC(F)(F)F)cc1C (stereo not shown) [compound 110] | A (100) |
| Cc1cc(C(F)(F)C(F)(F)F)ccc1NC(=O)c1c(Cl)cccc1C(=O)NC(C)CS(C)(=O)=O (stereo not shown) [compound 116] | A (100) |

| Structure (SMILES) | Test Example 1 insecticidal effect (mortality) |
| --- | --- |
| CCC(CSC)NC(=O)c1c(I)cccc1C(=O)Nc1ccc(C(F)(C(F)(F)F)C(F)(F)F)cc1C (stereo not shown) [compound 120] | A (100) |
| CSCC(C)NC(=O)c1c(SC(F)(F)F)cccc1C(=O)Nc1ccc(C(F)(F)C(F)(F)F)cc1C (stereo not shown) [compound 129] | A (100) |
| CSCC(C)NC(=O)c1c(C(=O)Nc2ccc(C(F)(C(F)(F)F)C(F)(F)F)cc2C)cccc1[S+]([O-])C(F)(F)F (stereo not shown) [compound 132] | A (100) |
| CSCC(C)NC(=O)c1c(C(=O)Nc2ccc(OC(F)(F)F)cc2C)ccc(F)c1Cl (stereo not shown) [compound 147] | A (100) |
| CSCCCC(C)NC(=O)c1cccc(Cl)c1C(=O)Nc1ccc(C(F)(F)C(F)(F)F)cc1C (stereo not shown) [compound 151] | A (100) |
| Cc1cc(C(F)(F)C(F)(F)F)ccc1NC(=O)c1cccc(Cl)c1C(=O)NC(C)CCC[S+](C)[O-] (stereo not shown) [compound 152] | A (100) |
| CSCC(C)NC(=O)c1c(C(=O)Nc2ccc(C(F)(F)C(F)(F)F)cc2C)ccc2c1OCO2 (stereo not shown) [compound 158] | A (100) |
| Cc1cc(C(F)(C(F)(F)F)C(F)(F)F)ccc1NC(=O)c1cccc(Cl)c1C(=O)NC(C)(C)C[S+](C)[O-] (stereo not shown) [compound 172] | A (100) |
| CC[S+]([O-])CCCCC(C)NC(=O)c1c(I)cccc1C(=O)Nc1ccc(C(F)(F)C(F)(F)F)cc1C (stereo not shown) [compound 177] | A (100) |
| Cc1cc(OC(F)(F)F)ccc1NC(=O)c1ccc(Cl)c(Cl)c1C(=O)NC(C)CS(C)(=O)=O (stereo not shown) [compound 194] | A (100) |
| CCSC(C)CNC(=O)c1cccc(I)c1C(=O)Nc1ccc(C(F)(C(F)(F)F)C(F)(F)F)cc1C (stereo not shown) [compound 209] | A (100) |
| CC[S+]([O-])CCCC(C)NC(=O)c1c(Br)cccc1C(=O)Nc1ccc(C(F)(C(F)(F)F)C(F)(F)F)cc1C (stereo not shown) [compound 214] | A (100) |
| COc1ccc(C(=O)Nc2ccc(C(F)(C(F)(F)F)C(F)(F)F)cc2C)c(C(=O)NC(C)CSC)c1Cl (stereo not shown) [compound 222] | A (100) |
| Cc1cc(OC(F)(F)F)ccc1NC(=O)c1cccc(I)c1C(=O)NC1CCSC1 (stereo not shown) [compound 258] | A (100) |
| CCS(=O)(=O)CCC(C)NC(=O)c1c(Cl)cccc1C(=O)Nc1ccc(C(F)(C(F)(F)F)C(F)(F)F)cc1C (stereo not shown) [compound 275] | A (100) |
| Cc1cc(C(F)(F)F)ccc1NC(=O)c1cccc(Br)c1C(=O)NC(C)CS(C)(=O)=O (stereo not shown) [compound 277] | A (100) |
| Cc1cc(C(F)(C(F)(F)F)C(F)(F)F)ccc1NC(=O)c1ccc2c(c1C(=O)NC(C)CS(C)(=O)=O)OC(F)(F)O2 (stereo not shown) [compound 289] | A (100) |
| CSCC(C)(C)NC(=O)c1c(C(=O)Nc2ccc(OC(F)(F)F)cc2C)ccc2c1OC(F)(F)O2 [compound 292] | A (100) |
| CSCC(C)NC(=O)c1c(I)cccc1C(=O)Nc1ccc(C(F)(F)F)cc1C (stereo not shown) [compound 307] | A (100) |
| CSCC(C)(C)NC(=O)c1c(C(=O)Nc2ccc(OC(F)(F)F)cc2C)cccc1[N+](=O)[O-] [compound 322] | A (100) |
| CSCC(C)(C)NC(=O)c1c(C(=O)Nc2ccc(Br)cc2C)cccc1[N+](=O)[O-] [compound 324] | A (100) |
| COC(=O)CC[S+]([O-])CC(C)NC(=O)c1c(I)cccc1C(=O)Nc1ccc(C(F)(C(F)(F)F)C(F)(F)F)cc1C (stereo not shown) [compound 342] | A (100) |
| COC(=O)CCS(=O)(=O)CC(C)NC(=O)c1c(I)cccc1C(=O)Nc1ccc(C(F)(C(F)(F)F)C(F)(F)F)cc1C (stereo not shown) [compound 343] | A (100) |
| Cc1cc(C(F)(C(F)(F)F)C(F)(F)F)ccc1NC(=O)c1cccc(I)c1C(=O)NC(C)CS(=O)(=O)c1nc2ccccc2s1 (stereo not shown) [compound 345] | A (100) |
| CCSCC(C)NC(=O)c1ccc(OC(F)(F)F)cc1C(=O)Nc1ccc(C(F)(C(F)(F)F)C(F)(F)F)cc1C (stereo not shown) [compound 347] | A (100) |
| CSCC(C)(C)NC(=O)c1ccc(OC(F)(F)F)cc1C(=O)Nc1ccc(C(F)(C(F)(F)F)C(F)(F)F)cc1C [compound 356] | A (100) |
| C[S+]([O-])CC(C)(C)NC(=O)c1c(C(=O)Nc2ccc(OC(F)(F)F)cc2Cl)cccc1[N+](=O)[O-] (stereo not shown) [compound 377] | A (100) |
